Assay results: patent US20130323314A1, “Novel Nanoparticles of Lactoferrin Useful for Preparing a Pharmaceutical Composition Facilitating Easy Delivery of the Drug and a Process for Preparing the Same” (UNIVERSITY OF HYDERABAD, priority 2011, published 2013)
Counter-ions that a name gives are not always drawn. Like-named read-outs stand apart in the source and are kept apart here. Marks after values point to notes of the source that are not given here.

What was measured:
heart = details: rat, in vivo
in vivo [1] = details: rat, po
in vivo [2] = details: rat, iv
in vivo [3] = details: rat, im
in vivo [4] = details: rat, sc
[5] = Pharmacokinetics and tissue distribution after oral administration; details: rat
[6] = Pharmacokinetics and tissue distribution after intravenous administration; details: rat
[7] = Pharmacokinetics and tissue distribution after subcutaneous administration; details: rat
[8] = Pharmacokinetics and tissue distribution after intramuscular administration; details: rat

With `COc1cccc2c1C(=O)c1c(O)c3c(c(O)c1C2=O)C[C@@](O)(C(=O)CO)C[C@@H]3O[C@H]1C[C@H](N)[C@H](O)[C@H](C)O1` [Doxo, Doxorubicin hydrochloride] as the molecule, how does the “toxicity to heart (safety analysis)” value (heart) read?
Its value is “cardiotoxic”.

And the “toxicity to heart (safety analysis)” value (heart; iv)?
Its value is “cardiotoxic”.

And the “toxicity to heart (safety analysis)” value (heart; po)?
Its value is “cardiotoxic”.

What about the “toxicity to heart (safety analysis)” value (heart; sc) of the same molecule?
Its value is “cardiotoxic”.

And the Cmax (in vivo [1]; heart)?
Its Cmax is 17200 ng/g.

What about the MRT last (in vivo [1]; in vivo) of the same molecule?
The MRT last was 8.21 h.

What about the Tmax (in vivo [1]; in vivo) of the same molecule?
Its Tmax is 8 h.

What about the Cmax (in vivo [1]; kidney) of the same molecule?
The Cmax was 32900 ng/g.

And the Cmax (in vivo [1]; liver)?
Its Cmax is 17400 ng/g.

What about the Cmax (in vivo [1]; spleen) of the same molecule?
The Cmax was 11100 ng/g.

What about the Tmax (in vivo [2]) of the same molecule?
The Tmax was 8 h.

What about the half-life (in vivo [2]) of the same molecule?
Its half-life is 2.74 h.

What about the Tmax (in vivo [3]) of the same molecule?
The Tmax was 8 h.

And the Tmax (in vivo [4])?
The Tmax was 8 h.

And the AUC ([5]; Blood)?
The AUC was 105.24 (h) * (μg/μL).

And the AUMC ([5]; Blood)?
The AUMC was 1227.63 (h)^2 * (μg/μL).

What about the Cmax ([5]; Blood) of the same molecule?
Its Cmax is 8250 µg/mL.

What about the t½ ([5]; Blood) of the same molecule?
Its t½ is 3.741 h.

What about the AUC ([5]; Heart) of the same molecule?
Its AUC is 248.048 (h) * (μg/g).

And the AUMC ([5]; Heart)?
Its AUMC is 3211.86 (h)^2 * (μg/g).

What about the MRT last ([5]; Heart) of the same molecule?
The MRT last was 8.9708 h.

What about the Tmax ([5]; Heart) of the same molecule?
Its Tmax is 16 h.

And the t½ ([5]; Heart)?
Its t½ is 7.533 h.

What about the AUC ([5]; Kidney) of the same molecule?
The AUC was 362.639 (h) * (μg/g).

What about the AUMC ([5]; Kidney) of the same molecule?
The AUMC was 4321.31 (h)^2 * (μg/g).

And the t½ ([5]; Kidney)?
Its t½ is 6.47 h.

And the AUC ([5]; Liver)?
The AUC was 207.816 (h) * (μg/g).

What about the AUMC ([5]; Liver) of the same molecule?
Its AUMC is 2379.51 (h)^2 * (μg/g).

And the MRT last ([5]; Liver)?
The MRT last was 7.428 h.

What about the t½ ([5]; Liver) of the same molecule?
The t½ was 6.099 h.

And the AUC ([5]; Spleen)?
The AUC was 190.928 (h) * (μg/g).

What about the AUMC ([5]; Spleen) of the same molecule?
The AUMC was 2616.55 (h)^2 * (μg/g).

What about the MRT last ([5]; Spleen) of the same molecule?
Its MRT last is 9.2978 h.

What about the t½ ([5]; Spleen) of the same molecule?
The t½ was 5.894 h.

What about the Cmax ([6]; Blood) of the same molecule?
The Cmax was 22286.7 µg/mL.

And the t½ ([6]; Heart)?
Its t½ is 4.444 h.

And the t½ ([6]; Kidney)?
The t½ was 2.63 h.

And the t½ ([6]; Liver)?
Its t½ is 3.432 h.

What about the t½ ([6]; Spleen) of the same molecule?
Its t½ is 3.833 h.

And the AUC ([7]; Blood)?
The AUC was 167.94 (h) * (μg/μL).

And the AUMC ([7]; Blood)?
The AUMC was 1745.8 (h)^2 * (μg/μL).

And the Cmax ([7]; Blood)?
The Cmax was 12855 µg/mL.

What about the MRT last ([7]; Blood) of the same molecule?
Its MRT last is 10.394 h.

What about the t½ ([7]; Blood) of the same molecule?
The t½ was 7.0001 h.

And the AUC ([7]; Heart)?
Its AUC is 467.46 (h) * (μg/μL).

And the AUMC ([7]; Heart)?
The AUMC was 13515 (h)^2 * (μg/μL).

And the Cmax ([7]; Heart)?
Its Cmax is 18198 µg/mL.

What about the MRT last ([7]; Heart) of the same molecule?
Its MRT last is 28.912 h.

And the t½ ([7]; Heart)?
The t½ was 18.662 h.

And the AUC ([7]; Kidney)?
The AUC was 2249.1 (h) * (μg/g).

And the AUMC ([7]; Kidney)?
The AUMC was 19205 (h)^2 * (μg/g).

What about the Cmax ([7]; Kidney) of the same molecule?
The Cmax was 200.93 h.

What about the MRT last ([7]; Kidney) of the same molecule?
Its MRT last is 8.5383 h.

And the t½ ([7]; Kidney)?
The t½ was 3.888 h.

What about the AUC ([7]; Liver) of the same molecule?
Its AUC is 1025 (h) * (μg/μL).

And the AUMC ([7]; Liver)?
The AUMC was 10140 (h)^2 * (μg/μL).

And the Cmax ([7]; Liver)?
Its Cmax is 71123 µg/mL.

What about the MRT last ([7]; Liver) of the same molecule?
Its MRT last is 9.8923 h.

What about the t½ ([7]; Liver) of the same molecule?
The t½ was 5.9991 h.

And the AUC ([7]; Spleen)?
The AUC was 553.3 (h) * (μg/g).

What about the AUMC ([7]; Spleen) of the same molecule?
The AUMC was 7927.3 (h)^2 * (μg/g).

And the Cmax ([7]; Spleen)?
Its Cmax is 34.747 h.

And the MRT last ([7]; Spleen)?
The MRT last was 14.327 h.

What about the t½ ([7]; Spleen) of the same molecule?
Its t½ is 5.3088 h.

What about the AUC ([8]; Blood) of the same molecule?
The AUC was 185.4 (h) * (μg/μL).

What about the AUMC ([8]; Blood) of the same molecule?
The AUMC was 1581.8 (h)^2 * (μg/μL).

And the Cmax ([8]; Blood)?
Its Cmax is 11032 µg/mL.

And the MRT last ([8]; Blood)?
The MRT last was 8.5317 h.

What about the t½ ([8]; Blood) of the same molecule?
The t½ was 4.466 h.

What about the AUC ([8]; Heart) of the same molecule?
The AUC was 510.54 (h) * (μg/g).

What about the AUMC ([8]; Heart) of the same molecule?
The AUMC was 12046 (h)^2 * (μg/g).

And the MRT last ([8]; Heart)?
The MRT last was 23.595 h.

What about the t½ ([8]; Heart) of the same molecule?
Its t½ is 13.27 h.

What about the AUC ([8]; Kidney) of the same molecule?
Its AUC is 2580.5 (h) * (μg/g).

What about the AUMC ([8]; Kidney) of the same molecule?
The AUMC was 26548 (h)^2 * (μg/g).

What about the MRT last ([8]; Kidney) of the same molecule?
The MRT last was 10.288 h.

What about the t½ ([8]; Kidney) of the same molecule?
The t½ was 2.0438 h.

And the AUC ([8]; Liver)?
Its AUC is 751.01 (h) * (μg/g).

And the AUMC ([8]; Liver)?
Its AUMC is 10278 (h)^2 * (μg/g).

What about the MRT last ([8]; Liver) of the same molecule?
The MRT last was 13.685 h.

What about the t½ ([8]; Liver) of the same molecule?
Its t½ is 4.9231 h.

What about the AUC ([8]; Spleen) of the same molecule?
The AUC was 899.9 (h) * (μg/g).

What about the AUMC ([8]; Spleen) of the same molecule?
Its AUMC is 19234 (h)^2 * (μg/g).

And the MRT last ([8]; Spleen)?
Its MRT last is 21.374 h.

And the t½ ([8]; Spleen)?
The t½ was 13.602 h.
